In patent publication US20240409566A1, “DELIVERY OF THERAPEUTIC ALKALOID COMPOUNDS” (priority 2022, published 2024):

Legend:
[1] = Plasma stability assay, rat plasma; assay type: in vitro ADME; settings: rat, 10 µM
Procedure: (§1) Compound stability in rat and human plasma was measured by incubating compound with rat or human plasma at 37° C. in a microwell plate for sequential time points, monitoring pro-drug disappearance and metabolite appearance (mesembranol or 6-epi-mesembranol). A 2 mM stock solution of test compounds were prepared by dissolving appropriate amount of compounds in DMSO. The 2 mM stock was further diluted 200-folds in rat or human plasma to attain a final concentration of 10 μM respectively (0.5% DMSO). 50 μL aliquots of positive controls and test compounds spiked into rat or human plasma (n=2) were added to a pre-warmed plate (37° C.) and shaken at 50 rpm. At each respective time point, the reaction was stopped by adding 500 μL of acetonitrile containing internal standards (100 nM aprozolam, 200 nM caffeine, 100 nM tolbutamide). All samples were vortexed for 10 minutes, followed by centrifugation at 3,220 g for 30 minutes to precipitate proteins. 100 μL of the supernatant is transferred to a new plate. The supernatant will be diluted with ultrapure water according to the LC-MS signal response and peak shape. The concentrations of test compounds and positive control were quantified in the test samples using LC-MS/MS. Results reported as % of prodrug compound remaining at time point, and % of metabolite (mesembranol or 6-epi-mesembranol,) accumulated at time point.

[2] = Plasma stability assay, human plasma; assay type: in vitro ADME; settings: human, 10 µM
Procedure: as §1

5-HT transporter (SERT) = 5-HT transporter (SERT) (Homo sapiens (Human), UniProt P31645); settings: cited from earlier work

SMILES | Prodrug (%) ([1]; 0 min) | Prodrug (%) ([1]; 10 min) | Prodrug (%) ([1]; 30 min) | Prodrug (%) ([1]; 60 min) | Prodrug (%) ([1]; 120 min) | Prodrug (%) ([1]; 240 min) | Prodrug (%) ([2]; 0 min) | Prodrug (%) ([2]; 10 min) | Prodrug (%) ([2]; 30 min) | Prodrug (%) ([2]; 60 min) | Prodrug (%) ([2]; 120 min) | Prodrug (%) ([2]; 240 min) | nH, 5-HT transporter (SERT) (5-HT transporter (SERT); Hill coefficient of concentration response curves) | Ki (5-HT transporter (SERT); concentration response curves, binding)
COc1ccc([C@@]23CC[C@@H](OCOC(=O)C(C)C)C[C@@H]2N(C)CC3)cc1OC [Compound 208, (((3aS,6R,7aS)-3a-(3,4-dimethoxyphenyl)-1-methyloctahydro-1H-indol-6-yl)oxy)methyl isobutyrate] | 100.0% | 0.0% | 0.0% | 0.0% | 0.0% | 0.0% | 100.0% | 0.1% | 0.2% | 0.2% | 0.0% | 0.0% | – | –
CCOC(=O)O[C@@H]1CC[C@@]2(c3ccc(OC)c(OC)c3)CCN(C)[C@H]2C1 [Compound 209, (3aS,6R,7aS)-3a-(3,4-dimethoxyphenyl)-1-methyloctahydro-1H-indol-6-yl ethyl carbonate] | 100.0% | 11.5% | 0.0% | 0.0% | 0.0% | 0.0% | 100.0% | 96.0% | 91.8% | 87.6% | 84.1% | 72.5% | – | –
CCCC(=O)OCO[C@@H]1CC[C@@]2(c3ccc(OC)c(OC)c3)CCN(C)[C@H]2C1 [Compound 210, (((3aS,6R,7aS)-3a-(3,4-dimethoxyphenyl)-1-methyloctahydro-1H-indol-6-yl)oxy)methyl butyrate] | 100.0% | 0.0% | 0.0% | 0.0% | 0.1% | 0.1% | 100.0% | 0.5% | 1.0% | 0.6% | 0.1% | 0.1% | – | –
COc1ccc(C23C=CC(O)CC2N(C)CC3)cc1OC (centres unmarked) [Mesembrenol] | – | – | – | – | – | – | – | – | – | – | – | – | 1.1 | 62 nM
